Reference: ChEMBL document CHEMBL1201862, “PubChem BioAssay data set” (2004)
Where “and” joins values, the source holds several entries; their conditions need not be identical. Equal values may be shown once.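 Cultured in 96-well plates, cells were exposed to test compound for 48 hours across five concentrations. GI50 is the concentration that inhibits growth by half.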 Calls of active or inactive are those of the source. No stated cut-off is given here; in the data, active = GI50 up to about 1.1 µM and inactive = higher.

Assays:
Assay in all cases: NCI tumour cell line growth inhibition, 48 h
SNB-19 = test system: SNB-19
M14 = test system: M14
PC-3 = test system: PC-3
MDA-MB-231 = test system: MDA-MB-231
MDA-MB-435 = test system: MDA-MB-435
SR = test system: SR
MDA-N = test system: MDA-N
EKVX = test system: EKVX
T47D = test system: T47D
Hs-578T = test system: Hs-578T
HCT-116 = test system: HCT-116
TK-10 = test system: TK-10
HOP-92 = test system: HOP-92
DU-145 = test system: DU-145
MCF7 = test system: MCF7
MOLT-4 = test system: MOLT-4
BT-549 = test system: BT-549
SW-620 = test system: SW-620

SMILES | GI50 (SNB-19) | GI50 (M14) | GI50 (PC-3) | GI50 (MDA-MB-231) | GI50 (MDA-MB-435) | GI50 (SR) | GI50 (MDA-N) | GI50 (EKVX) | GI50 (T47D) | GI50 (Hs-578T) | GI50 (HCT-116) | GI50 (TK-10) | GI50 (HOP-92) | GI50 (DU-145) | GI50 (MCF7) | GI50 (MOLT-4) | GI50 (BT-549) | GI50 (SW-620)
O=C1OC(c2ccccc2)=N/C1=C\c1ccccc1 | 66.7 µM (inactive) and 40.1 µM (inactive) | 26.9 µM (inactive) and 30.4 µM (inactive) | > 100 µM (inactive) | > 100 µM (inactive) | 64 µM (inactive) and 56 µM (inactive) | 28.4 µM (inactive) and 14.5 µM (inactive) | 44.7 µM (inactive) | > 100 µM (inactive) | > 100 µM (inactive) | 58.7 µM (inactive) and 36.7 µM (inactive) | > 100 µM (inactive) | 62.7 µM (inactive) and 78.2 µM (inactive) | > 100 µM (inactive) | > 100 µM (inactive) and 59 µM (inactive) | 48.4 µM (inactive) and 96.6 µM (inactive) | 28.2 µM (inactive) and 47 µM (inactive) |  | 
COc1ccc(Nc2nc(N)c(C(=O)c3c[nH]c4ccccc34)s2)cc1 | 2.82 µM (inactive) | 1.23 µM (inactive) | 2.15 µM (inactive) | 9.91 µM (inactive) | 0.161 µM (active) | 0.0655 µM (active) | 0.31 µM (active) | 3.05 µM (inactive) | 3.6 µM (inactive) |  | 0.92 µM (active) | 5.56 µM (inactive) | 5.36 µM (inactive) | 2.2 µM (inactive) | 1.03 µM (active) | 0.478 µM (active) | 2.43 µM (inactive) | 1.65 µM (inactive)
OC1C2CCC3C2CC(C(O)(c2ccccc2)c2ccccc2)C13 (stereo unspecified) | > 100 µM (inactive) | 65.8 µM (inactive) | 21.4 µM (inactive) | 29.6 µM (inactive) | 32.6 µM (inactive) | 32.7 µM (inactive) | 33.3 µM (inactive) | 33.8 µM (inactive) | 79.3 µM (inactive) | 45.9 µM (inactive) | 36.1 µM (inactive) | 73.5 µM (inactive) | 45.2 µM (inactive) | > 100 µM (inactive) | 84.5 µM (inactive) | 35.8 µM (inactive) |  | > 100 µM (inactive)
O=C1c2ccccc2C2(c3ccc(Cl)cc3)N[C@H]3CCCC[C@@H]3N12 (stereo partly specified) | 35.4 µM (inactive) |  | > 100 µM (inactive) | > 100 µM (inactive) | > 100 µM (inactive) | 43.6 µM (inactive) | > 100 µM (inactive) | 78.3 µM (inactive) | > 100 µM (inactive) | 59.2 µM (inactive) | 60.1 µM (inactive) | > 100 µM (inactive) | > 100 µM (inactive) | > 100 µM (inactive) |  | 36.7 µM (inactive) | > 100 µM (inactive) | > 100 µM (inactive)
CN(C)CC(CO)(CN(C)C)CN(C)C | > 100 µM (inactive) | > 100 µM (inactive) | > 100 µM (inactive) |  |  | > 100 µM (inactive) | > 100 µM (inactive) | > 100 µM (inactive) |  |  | > 100 µM (inactive) | > 100 µM (inactive) | > 100 µM (inactive) | > 100 µM (inactive) | > 100 µM (inactive) | > 100 µM (inactive) | > 100 µM (inactive) | > 100 µM (inactive)
COc1ccc2c(c1)-c1oc3ccccc3c(=O)c1CO2 |  | 57.7 µM (inactive) | 31.9 µM (inactive) | 36.3 µM (inactive) | 25.6 µM (inactive) |  | 23.4 µM (inactive) | 25 µM (inactive) | 29.9 µM (inactive) |  | 28.8 µM (inactive) | 45.2 µM (inactive) |  | 40.1 µM (inactive) | 36.9 µM (inactive) | 28.1 µM (inactive) | 37.3 µM (inactive) | 28.2 µM (inactive)
c1ccc(/N=C(\N2CCCCC2)N(CCN2CCCCC2)c2ccccc2)cc1 | 3.78 µM (inactive) | 1.5 µM (inactive) | 0.53 µM (active) | 1.39 µM (inactive) | 1.51 µM (inactive) | 0.28 µM (active) | 0.718 µM (active) |  | 1.08 µM (active) | 0.944 µM (active) | 0.0736 µM (active) | 2.96 µM (inactive) | 1.44 µM (inactive) | 2.1 µM (inactive) |  | 0.279 µM (active) |  | 1.8 µM (inactive)
NN=C(S)Nc1cccc(Cl)c1 | > 100 µM (inactive) | 88.7 µM (inactive) | 48.2 µM (inactive) | > 100 µM (inactive) | 83.6 µM (inactive) |  | > 100 µM (inactive) | > 100 µM (inactive) | 74.8 µM (inactive) | > 100 µM (inactive) | 36.3 µM (inactive) | > 100 µM (inactive) |  | > 100 µM (inactive) | > 100 µM (inactive) | 35.4 µM (inactive) | > 100 µM (inactive) | > 100 µM (inactive)
CC1=C2c3ccccc3N(C(=O)/C=C/C(=O)O)[C@H]2[C@H]2C(=O)OC(=O)[C@H]2C1 | > 10 µM (inactive) | > 10 µM (inactive) | > 10 µM (inactive) | > 10 µM (inactive) | > 10 µM (inactive) | > 10 µM (inactive) | > 10 µM (inactive) | > 10 µM (inactive) | > 10 µM (inactive) | > 10 µM (inactive) | > 10 µM (inactive) | > 10 µM (inactive) |  | > 10 µM (inactive) | > 10 µM (inactive) | > 10 µM (inactive) |  | > 10 µM (inactive)
